Test results published in patent US12150995B2, “IRAK degraders and uses thereof” (Kymera Therapeutics, Inc., priority 2020, dated 2024).

Target: T1, IRAK4 (Homo sapiens, UniProt Q9NWZ3)
T1 construct: endogenous in cells; host or cells: OCI-LY10
T1 sequence (Q9NWZ3 1-460): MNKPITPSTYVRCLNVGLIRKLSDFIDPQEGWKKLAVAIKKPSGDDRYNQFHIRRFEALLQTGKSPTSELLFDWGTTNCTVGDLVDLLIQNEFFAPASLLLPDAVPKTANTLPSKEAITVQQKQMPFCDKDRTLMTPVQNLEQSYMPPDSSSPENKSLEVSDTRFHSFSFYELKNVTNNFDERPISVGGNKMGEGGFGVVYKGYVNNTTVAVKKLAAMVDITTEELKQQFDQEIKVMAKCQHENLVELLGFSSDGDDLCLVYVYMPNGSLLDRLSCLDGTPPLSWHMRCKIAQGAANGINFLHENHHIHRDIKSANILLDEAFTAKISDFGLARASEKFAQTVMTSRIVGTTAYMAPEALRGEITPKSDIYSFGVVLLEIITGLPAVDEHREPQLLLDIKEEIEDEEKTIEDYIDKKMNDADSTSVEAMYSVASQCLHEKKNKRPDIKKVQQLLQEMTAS
Experiment: IRAK4 MSD Degradation in OCI-LY10
Type: cell-based
Settings: OCI-LY10 cells, Meso Scale Discovery, incubated 4 to 24 hours
Summary of the method: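 IRAK4 degradation was quantified by Meso Scale electrochemiluminescence (anti-IRAK4 capture and detection antibodies) in lysates of treated OCI-LY10 cells. Compounds were dosed at 8 concentrations (1:3 dilutions, top 1 to 10 μM) for 4 to 24 h; DC50 derived by three-parameter logistic fitting.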

DC50 [nM]	SMILES
< 10	COc1cc2nc([C@H]3CC[C@H](CN4CCC(c5ccc6c(N7CCC(=O)NC7=O)cncc6c5)CC4)CC3)sc2cc1NC(=O)c1cccc(C(F)(F)F)n1 [I-125]
< 10	CC(C)Nc1cc(-n2ccc3cc(C#N)cnc32)ncc1-c1cn([C@H]2CC[C@H](CN3CCN(c4cccc5c(N6CCC(=O)NC6=O)cncc45)CC3)CC2)nn1 [I-197]
> 200	CN(C[C@H]1CC[C@H](c2cc3cc(NC(=O)c4cccc(C(F)(F)F)n4)c(F)cc3n2C)CC1)C1CCN(c2cccc3c2n(C)c(=O)n3C2CCC(=O)NC2=O)CC1 (stereo partly shown) [I-59]
> 200	COc1cc2nn([C@H]3C[C@H](CN4CCC(c5ccc6c(N7CCC(=O)NC7=O)cncc6c5)CC4)C3)cc2cc1NC(=O)c1cccc(C(F)(F)F)n1 [I-119]
10 to 50	Cn1c(=O)n(C2CCC(=O)NC2=O)c2cccc(N3CCN(C[C@H]4CC[C@H](n5cc6cc(NC(=O)c7cccc(C(F)(F)F)n7)ccc6n5)CC4)C(C)(C)C3)c21 (stereo partly shown) [I-324]
< 10	Cn1c(=O)n(C2CCC(=O)NC2=O)c2cccc(C3CCN(C[C@H]4CC[C@H](n5cc6cc(NC(=O)c7nc(C(F)(F)F)cs7)ccc6n5)CC4)CC3)c21 (stereo partly shown) [I-215]
< 10	COc1cc2nn([C@H]3CC[C@H](CN4CCC(c5ccc6c(c5C)n(C)c(=O)n6C5CCC(=O)NC5=O)CC4)CC3)cc2cc1NC(=O)c1cccc(C(F)(F)F)n1 (stereo partly shown) [I-173]
50 to 100	CC(C)(O)c1cc2nc([C@H]3CC[C@H](CN4CC5(CC(CCNc6cccc7c6C(=O)N(C6CCC(=O)NC6=O)C7=O)C5)C4)CC3)[nH]c2cc1NC(=O)c1cccc(C(F)(F)F)n1 (stereo partly shown) [I-14]
100 to 200	COc1cc2nn([C@H]3CC[C@H](CN4CCC(c5ccc6c(N7CCC(=O)NC7=O)cncc6c5)CC4)CC3)cc2cc1NC(=O)c1cncc(C#N)c1 [I-122]
50 to 100	Cn1c(=O)n(C2CCC(=O)NC2=O)c2ccc(F)c(C3CCN(C[C@H]4C[C@H](n5cc6cc(NC(=O)c7cccc(C(F)(F)F)n7)ncc6n5)C4)CC3)c21 (stereo partly shown) [I-147]
> 200	Cc1cccc(C(=O)Nc2cc3sc([C@H]4CC[C@H](C(=O)N5CCC6(CC5)CC(CCNc5cccc7c5C(=O)N(C5CCC(=O)NC5=O)C7=O)C6)CC4)nc3cc2C(C)(C)O)n1 (stereo partly shown) [I-474]
10 to 50	CC(C)Nc1cc(-c2ccc3cc(C#N)cnn23)ncc1C(=O)N[C@H]1CC[C@H](CN2CCN(c3cccc4c(N5CCC(=O)NC5=O)cncc34)CC2)CC1 [I-373]
< 10	COc1cc2nn([C@H]3CC[C@H](CN4C5CCC4CN(c4cccc6c4n(C)c(=O)n6C4CCC(=O)NC4=O)C5)CC3)cc2cc1NC(=O)c1cncc(C#N)c1 (stereo partly shown) [I-262]
10 to 50	COc1cc2nc([C@H]3CC[C@H](CN(C)CCCCNc4cccc5c4C(=O)N(C4CCC(=O)NC4=O)C5=O)CC3)sc2cc1NC(=O)c1cccc(C(F)(F)F)n1 (stereo partly shown) [I-446]
10 to 50	O=C1CCN(c2cncc3cc(N4CCN(C[C@H]5CC[C@H](n6cc7cc(NC(=O)c8cccc(C(F)(F)F)n8)c(C(F)F)cc7n6)CC5)CC4)ccc23)C(=O)N1 [I-375]
> 200	CC(C)(O)c1cc2nc([C@H]3CC[C@H](CN4CCO[C@H](CCCNc5cccc6c5C(=O)N(C5CCC(=O)NC5=O)C6=O)C4)CC3)sc2cc1NC(=O)c1cncc(C#N)c1 (stereo partly shown) [I-455]
> 200	CN(CCn1cc2cc(NC(=O)c3cccc(C(F)(F)F)n3)c(F)cc2n1)C1CCN(c2cccc3c2n(C)c(=O)n3C2CCC(=O)NC2=O)CC1 (stereo not shown) [I-19, N-[2-[2-[[1-[1-(2,6-dioxo-3-piperidyl)-3-methyl-2-oxo-benzimidazol-4-yl]-4-piperidyl]-methyl-amino]ethyl]-6-fluoro-indazol-5-yl]-6-(trifluoromethyl)pyridine-2-carboxamide]
> 200	O=C1CCC(N2C(=O)c3cccc(NCCC4CC5(C4)CN(C[C@H]4CC[C@H](n6cc7cc(NC(=O)c8cccc(C(F)(F)F)n8)c(OC8CC8)cc7n6)CC4)C5)c3C2=O)C(=O)N1 (stereo partly shown) [I-2]
10 to 50	COc1cc2nn([C@H]3CC[C@H](CN4CCC(c5c(OC)ccc6c5n(C)c(=O)n6C5CCC(=O)NC5=O)CC4)CC3)cc2cc1NC(=O)c1cncc(C#N)c1 (stereo partly shown) [I-195]
< 10	COc1cc2nn([C@H]3C[C@H](CN4CCC(c5cccc6c5n(C)c(=O)n6C5CCC(=O)NC5=O)CC4)C3)cc2cc1NC(=O)c1cccc(C(F)(F)F)n1 (stereo partly shown) [I-33]
< 10	COc1cc(NC(=O)c2cccc(C(F)(F)F)n2)cc2cn([C@H]3CC[C@H](CN4CCC(c5cccc6c5n(C)c(=O)n6C5CCC(=O)NC5=O)CC4)CC3)nc12 (stereo partly shown) [I-176]
10 to 50	COc1ccc2c(c1C1CCN(C[C@H]3C[C@H](n4cc5cc(NC(=O)c6cccc(C(F)(F)F)n6)ccc5n4)C3)CC1)n(C)c(=O)n2C1CCC(=O)NC1=O (stereo partly shown) [I-152]
10 to 50	Cn1c(=O)n(C2CCC(=O)NC2=O)c2cccc(C3CCN(C[C@H]4CC[C@H](n5cc6cc(NC(=O)c7cccc(C(F)(F)F)n7)c(C(F)(F)F)cc6n5)CC4)CC3)c21 (stereo partly shown) [I-76]
10 to 50	COc1cc2nn([C@H]3CC[C@H](CN4CCN(c5cccc6c5n(C)c(=O)n6C5CCC(=O)NC5=O)CC4(C)C)CC3)cc2cc1NC(=O)c1cccc(C(F)(F)F)n1 (stereo partly shown) [I-306]

Continued, compound first:

SMILES	DC50 [nM]
COc1cc2nn([C@H]3CC[C@H](CN4CCC(c5cccc6c(N7CCC(=O)NC7=O)cncc56)CC4)CC3)cc2cc1NC(=O)c1cccc(C(F)(F)F)n1 [I-97]	< 10
Cn1c(=O)n(C2CCC(=O)NC2=O)c2cccc(C3CCN(C[C@H]4CC[C@H](n5cc6cc(NC(=O)c7cncc(C(F)(F)F)n7)c(F)cc6n5)CC4)CC3)c21 (stereo partly shown) [I-45]	< 10
COc1cc2nc([C@H]3CC[C@H](CN(C)CCCNc4cccc5c4C(=O)N(C4CCC(=O)NC4=O)C5=O)CC3)sc2cc1NC(=O)c1cncc(C)c1 (stereo partly shown) [I-459]	> 200
COc1cc2nn([C@H]3CC[C@H](CN4CCN(c5cccc6c5n(C)c(=O)n6C5CCC(=O)NC5=O)C[C@H]4C)CC3)cc2cc1NC(=O)c1cccc(C(F)(F)F)n1 (stereo partly shown) [I-243]	< 10
COc1cc2nn([C@H]3CC[C@H](CN4CCN(c5cccc6c5n(C)c(=O)n6C5CCC(=O)NC5=O)C[C@@H]4C)CC3)cc2cc1NC(=O)c1cccc(C(F)(F)F)n1 (stereo partly shown) [I-246]	10 to 50
CC(C)Nc1cc(-n2ccc3cc(C#N)cnc32)ncc1C(=O)NC[C@H]1CC[C@H](CN(C)C2CCN(c3cccc4c3n(C)c(=O)n4C3CCC(=O)NC3=O)CC2)CC1 (stereo partly shown) [I-84]	50 to 100
Cn1c(=O)n(C2CCC(=O)NC2=O)c2cccc(N3C[C@@H]4C[C@H]3CN4C[C@H]3CC[C@H](n4cc5cc(NC(=O)c6cccc(C(F)(F)F)n6)c(C(C)(C)O)cc5n4)CC3)c21 (stereo partly shown) [I-225]	< 10
Cn1c(=O)n(C2CCC(=O)NC2=O)c2ccc(F)c(C3CCN(C[C@H]4C[C@H](n5cc6cc(NC(=O)c7cccc(C(F)(F)F)n7)c(Cl)cc6n5)C4)CC3)c21 (stereo partly shown) [I-142]	10 to 50
CN(C[C@H]1CC[C@H](n2cc3cc(NC(=O)C4CC4)c(C(C)(C)O)cc3n2)CC1)C1CCN(Cc2cccc3c2n(C)c(=O)n3C2CCC(=O)NC2=O)CC1 (stereo partly shown) [I-1]	> 200
COc1cc2nn([C@H]3C[C@H](CN4CCC(c5c(F)ccc6c5n(C)c(=O)n6C5CCC(=O)NC5=O)CC4)C3)cc2cc1NC(=O)c1cccc(C(F)(F)F)n1 (stereo partly shown) [I-89]	10 to 50
CCc1cc2nn([C@H]3CC[C@H](CN4CCN(c5cccc6c(N7CCC(=O)NC7=O)cncc56)CC4)CC3)cc2cc1NC(=O)c1cccc(C(F)(F)F)n1 [I-377]	< 10
COc1cc2nn([C@H]3CC[C@H](CN4CCC(c5cccc6c5n(C)c(=O)n6C5CCC(=O)NC5=O)CC4)CC3)cc2cc1NC(=O)c1cc(F)cc(C(F)(F)F)c1 (stereo partly shown) [I-132]	< 10
Cn1c(=O)n(C2CCC(=O)NC2=O)c2cccc(N3CCN(C[C@H]4CC[C@H](n5cc6cc(NC(=O)c7cccc(C(F)(F)F)n7)c(N7CCCC7)cc6n5)CC4)CC3)c21 (stereo partly shown) [I-392]	10 to 50
Cc1ccc2c(c1C1CCN(C[C@H]3CC[C@H](n4cc5cc(NC(=O)c6cccc(C(F)(F)F)n6)ncc5n4)CC3)CC1)n(C)c(=O)n2C1CCC(=O)N(C)C1=O (stereo partly shown) [I-162]	> 200
COc1cc2nc([C@H]3CC[C@H](CN(C)CCNc4cccc5c4C(=O)N(C4CCC(=O)NC4=O)C5=O)CC3)sc2cc1NC(=O)c1cncc(F)c1 (stereo partly shown) [I-481]	> 200
Cn1c(=O)n(C2CCC(=O)NC2=O)c2cccc(N3CCN(C[C@H]4CC[C@H](n5cc6cc(NC(=O)c7cccc(C(F)(F)F)n7)c([S+](C)[O-])cc6n5)CC4)CC3)c21 (stereo partly shown) [I-308]	< 10
COc1cc2nn([C@H]3CC[C@H](CN4C5CCC4CN(c4cccc6c4n(C)c(=O)n6C4CCC(=O)NC4=O)C5)CC3)cc2cc1NC(=O)c1cccc(C(F)(F)F)n1 (stereo partly shown) [I-167]	< 10
COc1ccc2c(c1C1CCN(C[C@H]3CC[C@H](n4cc5cc(NC(=O)c6cccc(C(F)(F)F)n6)ccc5n4)CC3)CC1)n(C)c(=O)n2C1CCC(=O)NC1=O (stereo partly shown) [I-75]	10 to 50
Cn1c(=O)n(C2CCC(=O)NC2=O)c2ccc(F)c(C3CCN(C[C@H]4CC[C@H](n5cc6cc(NC(=O)c7cccc(C#N)n7)ccc6n5)CC4)CC3)c21 (stereo partly shown) [I-128]	< 10
CN(C(=O)[C@H]1CC[C@H](n2cc3cc(NC(=O)c4cccc(C(F)(F)F)n4)ccc3n2)CC1)C1CCN(c2cccc3c2n(C)c(=O)n3C2CCC(=O)NC2=O)CC1 (stereo partly shown) [I-186]	< 10
COc1cc2nn([C@H]3CC[C@H](CN4CCC(c5cccc6c5n(C)c(=O)n6C5CCC(=O)NC5=O)CC4)CC3)cc2cc1NC(=O)n1ccc2cccnc21 (stereo partly shown) [I-112]	< 10
Cc1cc2nn([C@H]3CC[C@H](CN4C[C@@H]5C[C@H]4CN5c4cccc5c4n(C)c(=O)n5C4CCC(=O)NC4=O)CC3)cc2cc1NC(=O)c1cccc(C(F)(F)F)n1 (stereo partly shown) [I-303]	< 10
